Test results reported in US12377095B2, “Use of ligustrazine nitrone derivatives in treatment and prevention of diabetic complication diseases” (QINGDAO HAILAN PHARMACEUTICALS CO., LTD., priority 2019, dated 2025).

Key:
Type in all cases: in vivo, rat
STZ-induced DKD rats [1] = assay: Blood glucose and urine protein in STZ-induced DKD rats
Protocol: (§1) SD rats (200±10 g) were used as model animals, which were fasted for 12 h before injection. STZ was dissolved in citrate buffer at 1% concentration, and rats were fasted and intraperitoneally injected with 55 mg/kg STZ and placed in the cage, the rats being ensured with adequate water intake for 24 h. STZ injections need to be fast and complete within 10 minutes of injection. The normal control group was injected with an equal volume of pH 4.5 citric acid-sodium citrate buffer. The state of the animals (multiple drinking and polyuria) was observed. After 3 weeks of STZ injection, blood was collected from the tail vein, and fasting blood glucose ≥16.7 mmol/L was measured as the standard for diabetic nephropathy in rats.
(§2) DKD rats were randomly assigned to 6 groups and given with different drugs. After 6 weeks of administration, the experiment was terminated and the protective effect of the drug on DKD rats was observed.
During the experiment, the blood glucose of the rats was monitored after the completion of the modeling and after the completion of the administration, and urine protein was collected once at 24 hour.

STZ-induced DKD rats [2] = assay: Masson staining, interstitial fibrosis index, STZ-induced DKD rats
Protocol: Before the injection, the rats were fasted for 12 hours without water. After weighing, the rats were injected with 55 mg/kg STZ intraperitoneally (STZ needs to be injected quickly, and the injection was completed within 10 minutes), and then returned to the cage to ensure that the rats had sufficient drinking water for 24 hours. Rats were injected with an equal volume of citrate buffer (pH 4.5). After STZ injection for 3 weeks, blood was collected from the tail vein, and blood glucose ≥16.7 mmol/L was used as the criteria for the standard of the rats.
The route of administration is intragastric administration. TBN was administered twice a day (fixed at 9:00-10:00 am and 3:00-4:00 pm), and Losartan was administered once a day (fixed at 9:00-10:00 am) continuously for 6 weeks.
At the end of the experiment, the kidney tissues were quickly separated, fixed with 4% paraformaldehyde and embedded in paraffin, serially sliced, 5 μm each, dried at 37° C. for 1 h, and then subjected to Masson staining. The process is briefly as follows: paraffin sections are taken out of the 65° C. oven and immediately put in xylene for dewaxing and gradient alcohol rehydration, according to the kit instructions, add reagent A (a mixture of equal amounts of A1 and A2) for dyeing for 8 min; then use Reagent B differentiates and reagent C turns blue; reagent D stains for 7 min; reagent E washes for 1 min; reagent F washes for 1 min; reagent G stains for 1 min; dehydrated with 95% ethanol and absolute ethanol, transparent xylene, sealed with neutral gum piece.

STZ-induced DKD rats [3] = assay: Kidney index of STZ-induced DKD rats; conditions: after 6 weeks of administration
Protocol: as §1, §2
After 6 weeks of administration, the kidney tissue was uniformly separated by an autoclave surgical instrument, and washed with normal saline. After the filter paper was blotted, the fine balance was weighed, and then stored in a refrigerator at −80° C. for use. Kidney index (relative to kidney weight) is kidney weight (mg)/body weight (g)[…].

Cc1nc(C)c(/C=[N+](\[O-])C(C)(C)C)nc1C [TBN]
urinary protein content in urine (STZ-induced DKD rats [1]; 24 hour urine, DKD rats): significantly reduced | blood glucose (STZ-induced DKD rats [1]; after 6 weeks of treatment): significantly decreased | interstitial fibrosis index (STZ-induced DKD rats [2]; 60 mg/kg, P<0.01): improved the most significantly | interstitial fibrosis index (STZ-induced DKD rats [2]; TBN treatment groups (10, 30, 60 mg/kg), dose-dependent): decreased | kidney index (STZ-induced DKD rats [3]): significantly reduced
